Assay results from the supplement of paper PMC10331698.
± gives the standard deviation of the averaged measurements.

Experiments:
Assay in all cases: level (log10 ratio to DMSO vehicle control); higher = higher biomarker level / cell amount than vehicle control
Octafluoroadipic acid = compound: O=C(O)C(F)(F)C(F)(F)C(F)(F)C(F)(F)C(=O)O [Octafluoroadipic acid] (in DMSO)
Experimental: (§1)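 BioMAP Diversity Plus panel of 12 human primary cell co-culture systems (3C, 4H, LPS, SAg, BT, BF4T, BE3C, CASM3C, HDF3CGF, KF3CT, MyoF, Mphg). Compounds were added 1 h before stimulation and left for 24 h (MyoF 48 h; BT 72 h for soluble read-outs or 6 d for IgG). Biomarkers were read by ELISA, cytotoxicity by SRB, PBMC viability and proliferation by Alamar Blue. Each well value was divided by the mean of 8 DMSO control wells on the same plate and log10 transformed; duplicate blinded samples were tested at 4 concentrations.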

Perfluoroundecanoic acid = compound: O=C(O)C(F)(F)C(F)(F)C(F)(F)C(F)(F)C(F)(F)C(F)(F)C(F)(F)C(F)(F)C(F)(F)C(F)(F)F [Perfluoroundecanoic acid] (in DMSO); details: 6700 nM
Experimental: as §1

[1] = compound: O=C(O)C(F)(F)C(F)(F)C(F)(F)OC(F)(F)F [Perfluoro(4-methoxybutanoic) acid] (in DMSO)
Experimental: as §1

[2] = compound: O=S(=O)(O)CCC(F)(F)C(F)(F)C(F)(F)C(F)(F)C(F)(F)C(F)(F)C(F)(F)C(F)(F)F [8:2 Fluorotelomer sulfonic acid] (in DMSO)
Experimental: as §1

Perfluorononanoic acid = compound: O=C(O)C(F)(F)C(F)(F)C(F)(F)C(F)(F)C(F)(F)C(F)(F)C(F)(F)C(F)(F)F [Perfluorononanoic acid] (in DMSO)
Experimental: as §1

[3] = compound: OCC(F)(F)OC(F)(F)C(F)(F)OC(F)(F)C(F)(F)OC(F)(F)CO [1H,1H,11H,11H-Perfluorotetraethylene glycol] (in DMSO)
Experimental: as §1

[4] = compound: O=C(O)C=C(C(F)(F)F)C(F)(F)F [3,3-Bis(trifluoromethyl)-2-propenoic acid] (in DMSO)
Experimental: as §1

In the case of 4H:SRB, the “level (log10)” value (Octafluoroadipic acid; 6700 nM) is reported as -0.002 ± 0.013, the “level (log10)” value (Octafluoroadipic acid; 20000 nM) is reported as 0.0025 ± 0.00071 and the “level (log10)” value (Octafluoroadipic acid; 60000 nM) is reported as -0.0105 ± 0.0035. For the same test system, the “level (log10)” value (Perfluoroundecanoic acid) was -0.0105 ± 0.011, the “level (log10)” value ([1]; 6700 nM) was -0.01 ± 0.0014 and the “level (log10)” value ([1]; 20000 nM) was -0.018 ± 0.0099. For the same test system, the “level (log10)” value ([1]; 60000 nM) was -0.0155 ± 0.0021, the “level (log10)” value ([2]; 6700 nM) was -0.012 ± 0.0014 and the “level (log10)” value ([2]; 20000 nM) was -0.0135 ± 0.012. The “level (log10)” value ([2]; 60000 nM) was -0.018 ± 0.033, the “level (log10)” value (Perfluorononanoic acid; 6700 nM) was 0.002 ± 0.0014 and the “level (log10)” value (Perfluorononanoic acid; 20000 nM) was -0.008 ± 0.0042. The “level (log10)” value ([3]; 6700 nM) was -0.0045 ± 0.013, the “level (log10)” value ([3]; 20000 nM) was -0.032 ± 0.023 and the “level (log10)” value ([3]; 60000 nM) was -0.0795 ± 0.037. The “level (log10)” value ([4]; 6700 nM) was -0.008 ± 0.0042, the “level (log10)” value ([4]; 20000 nM) was -0.026 ± 0.027 and the “level (log10)” value ([4]; 60000 nM) was -0.0615 ± 0.015.

With BF4T:CD54/ICAM-1 the “level (log10)” value (Octafluoroadipic acid; 6700 nM) was -0.001 ± 0.025, the “level (log10)” value (Octafluoroadipic acid; 20000 nM) was -0.007 ± 0.017 and the “level (log10)” value (Octafluoroadipic acid; 60000 nM) was 0.0065 ± 0.029. For the same test system, the “level (log10)” value (Perfluoroundecanoic acid) was -0.0175 ± 0.026, the “level (log10)” value ([1]; 6700 nM) was -0.005 ± 0.024 and the “level (log10)” value ([1]; 20000 nM) was -0.013 ± 0.027. For the same test system, the “level (log10)” value ([1]; 60000 nM) was -0.0005 ± 0.0035, the “level (log10)” value ([2]; 6700 nM) was -0.006 ± 0.0014 and the “level (log10)” value ([2]; 20000 nM) was -0.0175 ± 0.00071. The “level (log10)” value ([2]; 60000 nM) was -0.0325 ± 0.013, the “level (log10)” value (Perfluorononanoic acid; 6700 nM) was -0.0035 ± 0.021 and the “level (log10)” value (Perfluorononanoic acid; 20000 nM) was -0.05 ± 0.014. The “level (log10)” value ([3]; 6700 nM) was -0.002 ± 0.023, the “level (log10)” value ([3]; 20000 nM) was -0.03 ± 0.0014 and the “level (log10)” value ([3]; 60000 nM) was -0.0815 ± 0.0064. The “level (log10)” value ([4]; 6700 nM) was -0.0195 ± 0.005, the “level (log10)” value ([4]; 20000 nM) was -0.0205 ± 0.005 and the “level (log10)” value ([4]; 60000 nM) was -0.0075 ± 0.013.

In the case of 4H:CD87/uPAR, the “level (log10)” value (Octafluoroadipic acid; 6700 nM) is reported as 0.04 ± 0.0071, the “level (log10)” value (Octafluoroadipic acid; 20000 nM) is reported as 0.039 ± 0.011 and the “level (log10)” value (Octafluoroadipic acid; 60000 nM) is reported as 0.0345 ± 0.0064. For the same test system, the “level (log10)” value (Perfluoroundecanoic acid) was -0.008 ± 0.025, the “level (log10)” value ([1]; 6700 nM) was 0.0495 ± 0.039 and the “level (log10)” value ([1]; 20000 nM) was 0.035 ± 0.048. The “level (log10)” value ([1]; 60000 nM) was 0.046 ± 0.04, the “level (log10)” value ([2]; 6700 nM) was 0.026 ± 0.0028 and the “level (log10)” value ([2]; 20000 nM) was -0.01 ± 0.023. For the same test system, the “level (log10)” value ([2]; 60000 nM) was -0.0345 ± 0.015, the “level (log10)” value (Perfluorononanoic acid; 6700 nM) was -0.0245 ± 0.026 and the “level (log10)” value (Perfluorononanoic acid; 20000 nM) was -0.012 ± 0.0071. For the same test system, the “level (log10)” value ([3]; 6700 nM) was 0.001 ± 0.082, the “level (log10)” value ([3]; 20000 nM) was -0.0065 ± 0.053 and the “level (log10)” value ([3]; 60000 nM) was 0.0315 ± 0.012. The “level (log10)” value ([4]; 6700 nM) was -0.053 ± 0.038, the “level (log10)” value ([4]; 20000 nM) was -0.0455 ± 0.037 and the “level (log10)” value ([4]; 60000 nM) was -0.025 ± 0.062.

For BF4T:CCL26/Eotaxin-3, the “level (log10)” value (Octafluoroadipic acid; 6700 nM) was 0.0055 ± 0.025, the “level (log10)” value (Octafluoroadipic acid; 20000 nM) was -0.007 ± 0.042 and the “level (log10)” value (Octafluoroadipic acid; 60000 nM) was 0.009 ± 0.04. For the same test system, the “level (log10)” value (Perfluoroundecanoic acid) was -0.212 ± 0.014, the “level (log10)” value ([1]; 6700 nM) was 0.0195 ± 0.06 and the “level (log10)” value ([1]; 20000 nM) was 0.0005 ± 0.0035. For the same test system, the “level (log10)” value ([1]; 60000 nM) was 0.0065 ± 0.0021, the “level (log10)” value ([2]; 6700 nM) was -0.0635 ± 0.05 and the “level (log10)” value ([2]; 20000 nM) was -0.179 ± 0.05. The “level (log10)” value ([2]; 60000 nM) was -0.203 ± 0.0099, the “level (log10)” value (Perfluorononanoic acid; 6700 nM) was -0.0345 ± 0.037 and the “level (log10)” value (Perfluorononanoic acid; 20000 nM) was -0.288 ± 0.0085. For the same test system, the “level (log10)” value ([3]; 6700 nM) was 0.0395 ± 0.025, the “level (log10)” value ([3]; 20000 nM) was -0.013 ± 0.021 and the “level (log10)” value ([3]; 60000 nM) was -0.0675 ± 0.0064. The “level (log10)” value ([4]; 6700 nM) was -0.089 ± 0.03, the “level (log10)” value ([4]; 20000 nM) was -0.124 ± 0.0014 and the “level (log10)” value ([4]; 60000 nM) was -0.126 ± 0.067.

BF4T:MMP-1 was tested, and the “level (log10)” value (Octafluoroadipic acid; 6700 nM) was 0.0065 ± 0.011, the “level (log10)” value (Octafluoroadipic acid; 20000 nM) was -0.0025 ± 0.015 and the “level (log10)” value (Octafluoroadipic acid; 60000 nM) was 0.007 ± 0.0028. The “level (log10)” value (Perfluoroundecanoic acid) was -0.0045 ± 0.005, the “level (log10)” value ([1]; 6700 nM) was 0.0065 ± 0.029 and the “level (log10)” value ([1]; 20000 nM) was 0.0015 ± 0.032. For the same test system, the “level (log10)” value ([1]; 60000 nM) was 0.0095 ± 0.011, the “level (log10)” value ([2]; 6700 nM) was 0.005 ± 0.0085 and the “level (log10)” value ([2]; 20000 nM) was -0.002 ± 0.0071. The “level (log10)” value ([2]; 60000 nM) was 0.0035 ± 0.0021, the “level (log10)” value (Perfluorononanoic acid; 6700 nM) was -0.012 ± 0.028 and the “level (log10)” value (Perfluorononanoic acid; 20000 nM) was 0.0095 ± 0.016. For the same test system, the “level (log10)” value ([3]; 6700 nM) was -0.0025 ± 0.016, the “level (log10)” value ([3]; 20000 nM) was 0.0005 ± 0.018 and the “level (log10)” value ([3]; 60000 nM) was 0.0065 ± 0.046. For the same test system, the “level (log10)” value ([4]; 6700 nM) was -0.006 ± 0.018, the “level (log10)” value ([4]; 20000 nM) was 0 ± 0.0042 and the “level (log10)” value ([4]; 60000 nM) was 0.0125 ± 0.021.
